The values that follow come from ChEMBL document CHEMBL3853278, “Metabolomic Profiling Reveals the N-Acyl-Taurine Geodiataurine in Extracts from the Marine Sponge Geodia macandrewii (Bowerbank)” (J Nat Prod, 2016).

The nature of the assay: Cytotoxicity in human A2058 cells assessed as reduction in cell viability after 72 hrs by cell titer 96 aqueous one assay. In kind it is functional, cell-based. The conditions noted are these: A2058, 72 h.

One may read the IC50 as the concentration at which inhibition is half-maximal. For `CC(C)=CCC/C(C)=C/CC/C(C)=C/CCC(C)C(=O)NCCS(=O)(=O)O` (stereo unspecified), the IC50 was 8.5 µM.
